Measured values as given in patent US20230190704A1, “DRUG DELIVERY SYSTEM BASED ON CALCIUM PHOSPHATE NANOPARTICLES FUNCTIONALIZED WITH BIOACTIVE COMPOUNDS FROM EUPHORBIA EXTRACT AND THE USES THEREOF” (CELLBITEC, S.L., priority 2020, published 2023).
Converted amounts (≈) assume the structure as drawn.

Legend:
[1] = system: T84 human colon adenocarcinoma cell line; test: Antiproliferative SRB assay of nanoparticles and isolated compounds in T84 cells; format: cell-based; conditions: T84, isolated compound, 72 h
Experimental: The human colon adenocarcinoma cell line T84was purchased from the American Type Culture Collection (Rockville, MD, USA). The non-tumor colon cell line CCD18 (human colon epithelial cell line) was used as control. All cell lines were grown in Dulbecco’s Modified Eagle’s Medium (DMEM) supplemented with 10% heat-inactivated fetal bovine serum (FBS) and ATB (antibiotic, streptomycin + amphotericin B) at 1% and maintained in an incubator at 37° C. and 5% CO2 humidified atmosphere.
Cells were seeded in 48-well plates with DMEM (Dulbecco’s modified Eagles Medium) (300 ul) at a density of 4 x 10^3 cells/well in CCD18 and 5 x 10^3 cells/well in T84. After 24 hours, cell cultures were exposed 72 h to increasing concentrations of the nanoparticles dissolved in DMEM. In addition, bioactive components of the extract, Esculetin (range from 0.1 µg/ml to 5 µg/ml) and Euphorbetin (range from 0.02 µg/ml to 0.7 µg/ml), were combined at different concentration in order to determine their antitumor activity and to compare with nanoparticle activity and ethanolic extract activity. After incubation time, cells were fixed with trichloroacetic acid (TCA) at 10% for 20 minutes at 4° C. […] Finally, the optical density (OD) at 492 nm was measured in a spectrophotometer. Cell survival (%) was calculated according to the following equation: […]

[2] = system: 15 in vitro models with tumor cells; conditions: 15 in vitro tumor cell models; read-out: inhibitory dose 50 (IC50); cited from earlier work

IC50 [1] | Structure (SMILES) | IC50 [2]
0.27 µg/mL (≈ 1.52 µM) | O=c1ccc2cc(O)c(O)cc2o1 [Esculetin, esculetin] | 
 | CC(C)=CCC[C@@H](C)[C@@H]1CC[C@]2(C)C3=C(CC[C@@]12C)[C@@]1(C)CC[C@H](O)C(C)(C)[C@@H]1CC3 [Euphol] | 2 to 30 µM
